Data on one molecule can be found in publication PMC8750527 (Cancers, 2021).

The test system of data set [1] is MB cells. As to the kind of experiment: Proliferation index assay, MB cells. Type of data set: cell-based, human. Conditions: after 120 h; axitinib 5 µM, etoposide 1 µM. As to the method: DAOY, D458, D283, C8-D1A and HDF (30,000 cells per well) and HD-MB03 (50,000 cells per well) were seeded in 24-well plates for proliferation assays.
Data set [2] deals with DAOY. As to the kind of experiment: MTT assay, 48 h exposure, DAOY MB cells. The format is cell-based, human. Conditions: Homo sapiens, Daoy; Table 1; MTT, 48 h exposure; mean ± SEM. As to the method: (§1) HDF (3000 cells), C8-D1A (5000 cells), D458 (5000 cells), DAOY (2000 cells), HD-MB03 (10,000 cells) and CHLA-01-Med (10,000 cells) were seeded at an approximate confluency of 50% in 96-well plates (Corning Inc., Corning, NY, USA) in 100 µL medium per well. A range from 50 nM to 150 µM of every drug was tested. The effects of the antiangiogenic compounds were measured using a 3-[4,5-dimethylthiazol-2yl]-diphenyltetrazolium bromide (MTT) colorimetric assay (Sigma, Lyon, France) according to the manufacturer’s instructions. When applicable, IC50 was calculated using the nonlinear regression method of the Prism 5 software (Graphpad Software Inc., San Diego, CA, USA). […] An MTT assay was conducted as described above to assess the fitness of the cells.
A general note: Formazan colour is commonly taken as a measure of viable cells.

In data set [3] the test system is C8-D1A. As to the kind of experiment: Cumulative population doubling (CPD), C8-D1A. The format is cell-based, murine. As to the method:
(§2) Cumulative population doubling (CPD) was assessed as previously described. Briefly, depending on the cell line, a variable number of cells corresponding to about 30% confluency were seeded in triplicate in 60 mm diameter Petri dishes. […] The cells were harvested when the confluency reached about 90%, counted and plated again at a dilution of 1/20. CPD was calculated as previously described.

For data set [4], the system named is DAOY. As to the kind of experiment: Cumulative population doubling (CPD), DAOY. The format is cell-based, human. Conditions: continuous treatment; axitinib 5 µM, etoposide 1 µM. As to the method: as §2
The subject of data set [5] is group 3 (D283, D458 and HD-MB03) and putative Shh group (DAOY) MB cell lines. Briefly: MTT assay, mean IC50 over group 3 and Shh MB cell lines. Conditions: Homo sapiens. The format is cell-based. As to the method:
as §1

Data set [6] has as its system C8-D1A/HD-MB03 mixed spheroids. Briefly: 3D mixed spheroids of astrocytes and MB cells. The format is cell-based. Conditions: 7 days; axitinib 5 µM or etoposide 1 µM. As to the method: C8-D1A cells were stained with the green fluorescent probe neuro-DiO (cat. number 60015, Biotium, Fremont, CA, USA) according to the manufacturer’s protocol. C8-D1A-neuroDio cells (150,000) and HD-MB03-mCherry or DAOY-mCherry cells (50,000) were plated in 12-well plates. […] Fluorescence images of the cells were taken with a DMI400 inverted microscope (Leica Microsystemes SAS, Nanterre, France) equipped with a 40× objective and a Zyla 5.5 camera (Andor Technologies, Belfast, UK). The cells were then trypsinized and the number of both cell types was quantified using a Melody FACS (BD Biosciences, Frankton Lake, NJ, USA) with a 488 nm laser beam. Analysis of the FACS data was conducted with the Flowjo software (Tree Star Inc., Ashland, OR, USA).
Two thousand cells were seeded in ultralow-adhesion 96-well plates (Corning Inc., Corning, NY, USA). […] Pictures were taken with an AMG Evos microscope 40× objective (Thermo Fisher Scientific Inc, Waltham, MA, USA) and the spheroid areas were measured using the ImageJ software (NIH, Bethesda, MD, USA).

Data set [7] relates to human brain endothelial cells (BEC, hCMEC/D3). As to the kind of experiment: MTT assay, brain endothelial cells. Type of data set: cell-based. To be noted: after three days, 1, 5 and 25 µM tested.
Data set [8] has as its system HDF. As to the kind of experiment: Cell viability, propidium iodine incorporation, HDF. Conditions: 48 h; axitinib, cabozantinib 5 µM, etoposide 1 µM. Type of data set: cell-based, human. As to the method: Cell viability assays were conducted using a propidium iodine incorporation technique with an ADAM-sHIT automated cell counter (NanoEnTek, Gyeonggi-do, Korea) according to the manufacturer’s protocol.

By IC50 is commonly meant the midpoint of a concentration-inhibition curve. A higher IC50 goes with weaker potency in that assay. For the molecule `CNC(=O)c1ccccc1Sc1ccc2c(/C=C/c3ccccn3)n[nH]c2c1` [Axitinib, axitinib], the “reduction of proliferation of MB cells” value in data set [1] is listed as “more than 80%”. Also, the values for the IC50 in data set [2] and in data set [5] were 2.3 ± 1.5 µM and 1.1 ± 0.9 µM, respectively. Moreover, the “long-term proliferation (CPD) of C8-D1A cells” value in data set [3] (continuous treatment, 5 µM axitinib, compared to etoposide 1 µM) is “milder effect”. The “proliferation (CPD) of C8-D1A normal cells after removal of the drug” value in data set [3] (transient treatment for 48 h, 5 µM) is “able to proliferate again”. For the same molecule, the “long-term proliferation (CPD) of DAOY cells” value in data set [4] is “strongly impaired their proliferation”. Besides, the “size of mixed spheroids” value in data set [6] was “strong decrease in the size of spheroids”. Further, the “doses displaying toxicity in brain endothelial cells” value in data set [7] is “higher than 1 µM”. Further, the “viability of HDF normal cells” value in data set [8] is “no effect on the viability”.
